{"source": "paper PMC13490399", "about": "“Induced ubiquitination of the partially disordered estrogen receptor alpha via a 14-3-3 directed molecular glue-PROTAC” (Nature Communications, 2026)", "key": {"14-3-3/ERα complex [1]": {"biological_target": "14-3-3/ERα complex (Homo sapiens, UniProt P03372+P31947)", "experiment": "FA 14-3-3 titration to ERα peptide with compound, with or without VCB (14-3-3/ERα stabilization)", "assay_type": "binding", "details": "for stabilization of the 14-3-3/ERα interaction / stabilization of the 14-3-3/ERα complex with VCB, VCB recruitment: 1 µM compound; for stabilization of the 14-3-3/ERα interaction: without VCB; for stabilization of the 14-3-3/ERα complex with VCB, VCB recruitment: 5 µM VCB"}, "[2]": {"biological_target": "His-tagged VCB complex / biotinylated 14-3-3γ / ERα peptide (Homo sapiens, UniProt P03372+P40337+P61981)", "experiment": "TR-FRET assay of VCB recruitment to 14-3-3γ with ERα peptide", "assay_type": "binding", "details": "20 µM ERα peptide, 50 nM His-VCB, 50 nM biotinylated 14-3-3γ"}, "[3]": {"biological_target": "14-3-3ζ/ERα(LBD_F) complex with CRL2^VHL (Homo sapiens, UniProt P03372+P40337+P63104, F591R/P592R/S305A)", "experiment": "In vitro ubiquitination assay (SDS-PAGE, western blot, Alexa Fluor 488 ubiquitin)", "assay_type": "biochemical", "details": "for ubiquitination of the 14-3-3ζ/ERα(LBD_F) complex: Coomassie SDS–PAGE, quantified at 15 min", "protocol": "Briefly, the 14-3-3ζ/ERα^(LBD_F) complex was incubated with recombinantly expressed and purified UBE1, UBE2D2, UBE2R1, CRL2^VHL and ubiquitin in the presence of ^MGPROTACs and analysed time-dependently using Coomassie-stained SDS–PAGE (Fig. 6a). Ubiquitin conjugation was rapid with higher molecular weight species evident within 5 min (Supplementary Fig. 21) and were quantified at 15 min by Coomassie-stained SDS–PAGE (Fig. 6b, c and Supplementary Fig. 22).\nUBE2D2 was selected as a representative of the promiscuous UBE2D family which is known to work with Cullin RING E3 ligases such as CRL2^VHL[48]–[52]. The UBE2R family is known to be more apt at extending polyubiquitin chains[49]–[51], however recent studies have shown that UBE2R1 and UBE2R2 are also capable of installing the first ubiquitin on degrader-targeted substrates with CRL2^VHL[53],[54].\nThe reaction was quenched with reducing SDS sample buffer. The protein species were resolved by SDS-PAGE on a 10% bis-tris NuPAGE gel using MOPS running buffer, run at 175 V for 50 min. […] Proteins were transferred to a nitrocellulose membrane either by wet transfer at 90 V for 90 min, or using an iBlot 2 Gel Transfer Device (Invitrogen). […] For an example of presentation of the full scan blots, see Supplementary Fig. S23 or the Source Data file."}, "NanoLuc–VHL [4]": {"biological_target": "T1, NanoLuc–VHL (Homo sapiens, UniProt P40337)", "experiment": "cell-based", "details": "IC50, VHL probe displacement (BRET), live (non-permeabilized) MCF-7 cells, 4 h"}, "NanoLuc–VHL [5]": {"biological_target": "T1, NanoLuc–VHL", "details": "MCF-7 cells, in-cell VHL target engagement"}, "14-3-3/ERα complex [6]": {"tested_on": "14-3-3/ERα complex", "experiment": "14-3-3 immunoprecipitation–mass spectrometry (IP–MS) in MCF-7 cells", "details": "MCF-7, 10 μM CV2a, 24 h; not statistically significant (p > 0.05)"}, "14-3-3σ/ERα complex [7]": {"biological_target": "T2, 14-3-3σ/ERα complex (Homo sapiens, UniProt P03372+P31947)", "experiment": "FA compound titration to 14-3-3σ/ERα phosphopeptide complex", "assay_type": "binding", "details": "1 µM 14-3-3σ and 10 nM ERα peptide"}, "14-3-3σ/ERα complex [8]": {"biological_target": "T2, 14-3-3σ/ERα complex", "details": "previously reported; read-out: EC50, binding to the 14-3-3σ/ERα complex; cited from earlier work"}}, "note": "“Also recorded” adds a separate entry of the source.", "data": [{"smiles": "COCC1CCC2C1=CC1(C)C(=C(C(C)CNC(C)=O)CC1O)C(OC1OC(CO)C(O)C(O)C1O)C(O)C2C", "note": "(stereo not drawn)", "values": [{"measurement": "stabilization of the 14-3-3/ERα interaction", "setting": "14-3-3/ERα complex [1]", "value": "stabilizes the 14-3-3/ERα interaction"}]}, {"smiles": "C=CC(C)(C)OCC1OC(OC2C3=C(C(C)CNC(=O)CCCCCCCCCCCC(=O)NC(C(=O)N4CC(O)CC4C(=O)NCc4ccc(-c5scnc5C)cc4)C(C)(C)C)CC(O)C3(C)C=C3C(COC)CCC3C(C)C2O)C(O)C(O)C1O", "note": "(stereo not drawn) [(S-OH)-CV2a]", "values": [{"measurement": "stabilization of the 14-3-3/ERα complex with VCB, VCB recruitment", "setting": "14-3-3/ERα complex [1]", "value": "failed to recruit VCB"}, {"measurement": "stabilization of the 14-3-3/ERα interaction", "setting": "14-3-3/ERα complex [1]", "value": "stabilized the 14-3-3/ERα complex similarly to CV2a"}, {"measurement": "VCB recruitment to 14-3-3, TR-FRET signal", "setting": "[2]", "value": "no TR-FRET signal"}, {"measurement": "ubiquitination of the 14-3-3ζ/ERα(LBD_F) complex", "setting": "[3]", "value": "completely abrogated ubiquitination"}]}, {"smiles": "C=CC(C)(C)OCC1OC(OC2C3=C(C(C)CNC(=O)CCC(=O)NC(C(=O)N4CC(O)CC4C(=O)NCc4ccc(-c5scnc5C)cc4)C(C)(C)C)CC(O)C3(C)C=C3C(COC)CCC3C(C)C2O)C(O)C(O)C1O", "note": "(stereo not drawn) [CV0a]", "values": [{"measurement": "stabilization of the 14-3-3/ERα complex with VCB, VCB recruitment", "setting": "14-3-3/ERα complex [1]", "value": "negatively cooperative"}, {"measurement": "IC50", "setting": "NanoLuc–VHL [4]", "value": "> 10000", "unit": "nM"}]}, {"smiles": "C=CC(C)(C)OCC1OC(OC2C3=C(C(C)CNC(=O)CCCCCCCCCCCC(=O)NC(C(=O)N4CC(O)CC4C(=O)NCc4ccc(-c5scnc5C)cc4)C(C)(C)C)CC(O)C3(C)C=C3C(COC)CCC3C(C)C2O)C(O)C(O)C1O", "note": "(stereo not drawn) [CV2a]", "values": [{"measurement": "enhancement of ERα binding to 14-3-3, two-dimensional FA titration", "setting": "14-3-3/ERα complex [1]; CV2a titration in the absence of VCB", "value": "up to 2.5 fold"}, {"measurement": "enhancement of ERα binding to 14-3-3, two-dimensional FA titration", "setting": "14-3-3/ERα complex [1]; high CV2a and VCB concentrations", "value": "over 23 fold"}, {"measurement": "VCB recruitment to 14-3-3, TR-FRET signal", "setting": "[2]", "value": "unable to recruit VHL in the absence of ERα peptide; also recorded: extended recruitment window"}, {"measurement": "ubiquitination of the 14-3-3ζ/ERα(LBD_F) complex", "setting": "[3]", "value": "robust polyubiquitination"}, {"measurement": "cell permeability", "setting": "NanoLuc–VHL [5]", "value": "cell-permeable"}, {"measurement": "ERα enrichment in the 14-3-3 pull-down", "setting": "14-3-3/ERα complex [6]", "value": "~ 2.5 fold"}]}, {"smiles": "C=CC(C)(C)OCC1OC(OC2C3=C(C(C)CNC(=O)CCOCCOCCOCCC(=O)NC(C(=O)N4CC(O)CC4C(=O)NCc4ccc(-c5scnc5C)cc4)C(C)(C)C)CC(O)C3(C)C=C3C(COC)CCC3C(C)C2O)C(O)C(O)C1O", "note": "(stereo not drawn) [CV2p]", "values": [{"measurement": "binding to the 14-3-3/ERα complex", "setting": "14-3-3σ/ERα complex [7]", "value": "highest apparent potency"}, {"measurement": "ubiquitination of the 14-3-3ζ/ERα(LBD_F) complex", "setting": "[3]", "value": "robust polyubiquitination"}, {"measurement": "E2 requirement of ubiquitination", "setting": "[3]; UBE2D2 vs UBE2R1", "value": "observed only with UBE2D2"}, {"measurement": "ubiquitination of assembled complex vs apo-14-3-3", "setting": "[3]; up to 24 h", "value": "preferential ubiquitination of the assembled 14-3-3ζ/ERα^(LBD_F) complex over apo-14-3-3"}]}, {"smiles": "C=CC(C)(C)OCC1OC(OC2C3=C(C(C)CNC(=O)CCCCCCCCCCCCCCCCCC(=O)NC(C(=O)N4CC(O)CC4C(=O)NCc4ccc(-c5scnc5C)cc4)C(C)(C)C)CC(O)C3(C)C=C3C(COC)CCC3C(C)C2O)C(O)C(O)C1O", "note": "(stereo not drawn) [CV3a]", "values": [{"measurement": "VCB recruitment to 14-3-3, TR-FRET signal", "setting": "[2]", "value": "markedly reduced recruitment"}, {"measurement": "ubiquitination of the 14-3-3ζ/ERα(LBD_F) complex", "setting": "[3]", "value": "robust polyubiquitination"}]}, {"smiles": "C=CC(C)(C)OC[C@H]1O[C@H](O[C@@H]2C3=C([C@H](C)CNC(C)=O)C[C@H](O)[C@]3(C)/C=C3/[C@@H](COC)CC[C@H]3[C@@H](C)[C@H]2O)[C@H](O)[C@@H](O)[C@@H]1O", "note": "[FC-NAc, 3′-deacetylated fusicoccin N-acetyl]", "values": [{"measurement": "EC50", "setting": "14-3-3σ/ERα complex [8]", "value": 15, "unit": "nM"}]}, {"smiles": "CC(=O)N[C@H](C(=O)N1C[C@H](O)C[C@H]1C(=O)NCc1ccc(-c2scnc2C)cc1)C(C)(C)C", "note": "[VH032, reference compound]", "values": [{"measurement": "binding to the 14-3-3/ERα complex", "setting": "14-3-3σ/ERα complex [7]", "value": "did not engage the 14-3-3/ERα complex"}]}]}
